Assays:
[1] = tested on: guinea-pig ileum (acetylcholine contractions); assay: Antispasmodic activity in vitro, contractions caused by acetylcholine; settings: added 15 minutes before spasm-producing agent
Procedure: (§1) (4) The antispasmodic activity was measured in vitro, on guinea-pig ileum, the contractions of which were caused by histammne (Hist.), acetylcholine (Achol) or barium chloride (BaCl2). The tested products were added to perfusion bath 15 minutes before the spasm-producing agents.
(§2) The dose is given in micograms (μg) per ml of bath causing complete spasm inhibition.

[2] = tested on: guinea-pig ileum (barium chloride contractions); assay: Antispasmodic activity in vitro, contractions caused by barium chloride; settings: added 15 minutes before spasm-producing agent
Procedure: as §1, §2

[3] = tested on: guinea-pig ileum (histamine contractions); assay: Antispasmodic activity in vitro, contractions caused by histamine; settings: added 15 minutes before spasm-producing agent
Procedure: as §1, §2

femoral artery = assay: Vasodilator activity, femoral artery (technique of perfused paw); assay type: in vivo; design: key: O: no action; +: slight activity; ++: effect equal to half the effect of papaverine; +++: effect equal to that of papaverine; ++++: effect higher than that of papaverine; settings: intra-arterial, 30 mg/kg, anaesthetized dog, vs papaverine at same dose
Procedure: (3) The vasodilator activity was measured at the level of femoral artery on anaesthetized dog (technique of perfused paw). The tested substances were given intra-arterially at the rate of 30 mg/kg. Results are expressed with respect to papaverine tested at the same dose.
++: effect equal to half the effect of papaverine.
+++: effect equal to that of papaverine.
++++: effect higher than that of papaverine.

[4] = tested on: unanaesthetized, hypertension-suffering rat; assay: Antihypertensive activity (systolic arterial pressure), oral; assay type: in vivo; settings: 60 mg/kg, hypertensive rat, 3 hours
Procedure: (2) The antihypertensive activity was measured on unanaesthetized, hypertension-suffering rat. The tested substances were orally given at a rate of 60 mg/kg. The systolic arterial pressure was measured every 30 minutes for 2 hours before and for 3 hours after the tested product was given. Results are expressed as follows: […]
O: no reduction of arterial pressure.
+: reduction lower than 10 mm Hg.
++: reduction of 10 to 20 mm Hg.
+++: reduction higher than 20 mm Hg.

[5] = Acute toxicity, oral, LD50 (Litchfield and Wilcoxon); settings: mouse, in vivo, fasted male mice, confidence limits p=95% in brackets
Procedure: (1) The acute toxicity was determined on fasted male mice. The tested substances were orally administered and LD50 values (lethal dose for 50% of animals) were calculated according to the method of Litchfield and Wilcoxon (J. Pharmacol. exp. Ther. 96, 94-113, 1949). These LD50 values are given in mg/kg and also, when possible, with their confidence limits for p=95%.

SMILES | ANTISPASMODIC ACTIVITY ACHOL (dose causing complete spasm inhibition) [1] | ANTISPASMODIC ACTIVITY BaCl2 (dose causing complete spasm inhibition) [2] | ANTISPASMODIC ACTIVITY HIST. (dose causing complete spasm inhibition) [3] | VASODILATOR ACTIVITY (femoral artery) | ANTIHYPERTENSIVE ACTIVITY [4] | LD50 [5]
CC(NCCCCCc1ccccc1)C(O)c1ccc2c(c1)CCCS2 (stereo not shown) [No 8] | 1.7 μg per ml | 0.8 μg per ml | 0.8 μg per ml | ++++ |  | 
CC(NCCOc1ccc(Cl)cc1)C(O)c1ccc2c(c1)CCCS2 (stereo not shown) [No 40] | 1.7 μg per ml |  | 1.7 μg per ml | +++ | +++ (reduction higher than 20 mm Hg) | > 4000 mg/kg
CC(C(O)c1ccc2c(c1)CCC2)N1CCC(Cc2ccccc2)CC1 (stereo not shown) [No 172] | 1.7 μg per ml |  | 0.08 μg per ml | ++++ | +++ (reduction higher than 20 mm Hg) | 1900 mg/kg
CC(NCCc1ccccc1)C(O)c1ccc2c(c1)CCCS2 (stereo not shown) [No 13] | 0.8 μg per ml | 3.3 μg per ml | 3.3 μg per ml | ++ |  | 
CC1CSc2ccc(C(O)C(C)NCCCCc3ccccc3)cc21 (stereo not shown) [No 109] | 0.8 μg per ml |  | 0.17 μg per ml | +++ | +++ (reduction higher than 20 mm Hg) | ~2750 mg/kg
CC(NCCCSc1ccccc1)C(O)c1ccc2c(c1)CCCCS2 (stereo not shown) [No 39] | 0.8 μg per ml |  | 1.7 μg per ml | +++ | ++ (reduction of 10 to 20 mm Hg) | > 4000 mg/kg
CC(NCCCCc1ccccc1)C(O)c1ccc2c(c1)SCCS2 (stereo not shown) [No 100] | 1.7 μg per ml |  | 8.3 μg per ml | ++++ | +++ (reduction higher than 20 mm Hg) | > 2000 mg/kg
CC1Cc2cc(C(O)C(C)NCCCCc3ccccc3)ccc2O1 (stereo not shown) [No 70] | 1.7 μg per ml |  | 1.7 μg per ml | ++ | +++ (reduction higher than 20 mm Hg) | 285 mg/kg
CC(NCCCc1ccccc1)C(O)c1ccc2c(c1)CCS2 (stereo not shown) [No 57] | 1.7 μg per ml |  | 1.7 μg per ml | +++ | ++ (reduction of 10 to 20 mm Hg) | > 2000 mg/kg
CC(NCCOc1ccccc1)C(O)c1ccc2c(c1)CCC2 (stereo not shown) [No 168] | 3.3 μg per ml |  | 3.3 μg per ml | ++++ | +++ (reduction higher than 20 mm Hg) | > 2000 mg/kg
CC(NCCCc1ccccc1)C(O)c1ccc2c(c1)CCC2 (stereo not shown) [No 165] | 1.7 μg per ml |  | 1.7 μg per ml | +++ | +++ (reduction higher than 20 mm Hg) | 3800 mg/kg
CC1Cc2cc(C(O)C(C)NCCCCc3ccc(Cl)cc3)ccc2O1 (stereo not shown) [No 65] | 1.7 μg per ml |  | 0.8 μg per ml | +++ | +++ (reduction higher than 20 mm Hg) | 160 mg/kg
CC1CSc2ccc(C(O)C(C)NCCOc3ccccc3)cc2C1 (stereo not shown) [No 49] | 1.7 μg per ml |  | 3.3 μg per ml | +++ | +++ (reduction higher than 20 mm Hg) | ~3700 mg/kg
CC(NCCc1ccccc1)C(O)c1ccc2c(c1)CCCCS2 (stereo not shown) [No 14] | 3.3 μg per ml | 1.7 μg per ml | 1.7 μg per ml | +++ |  | 
